Results published in patent publication US8455475B2 (Gruenenthal GmbH, priority 2009, dated 2013).

How the values were obtained:
[1] = biological target: T1, rat B1R (bradykinin receptor 1) (Rattus norvegicus, UniProt P97583); experiment: FLIPR Ca2+ assay (Fluo-4) on CHO K1 cells stably transfected with the B1R gene of the rat (rB1R cells): % inhibition at 10 μM / IC50, agonist Des-Arg9-bradykinin; format: cell-based; conditions: for inhibition at 10 µM: CHO-K1, rat B1R
T1 construct: expressed in transfected cells; host or cells: CHO K1 cells
T1 sequence (P97583 1-337): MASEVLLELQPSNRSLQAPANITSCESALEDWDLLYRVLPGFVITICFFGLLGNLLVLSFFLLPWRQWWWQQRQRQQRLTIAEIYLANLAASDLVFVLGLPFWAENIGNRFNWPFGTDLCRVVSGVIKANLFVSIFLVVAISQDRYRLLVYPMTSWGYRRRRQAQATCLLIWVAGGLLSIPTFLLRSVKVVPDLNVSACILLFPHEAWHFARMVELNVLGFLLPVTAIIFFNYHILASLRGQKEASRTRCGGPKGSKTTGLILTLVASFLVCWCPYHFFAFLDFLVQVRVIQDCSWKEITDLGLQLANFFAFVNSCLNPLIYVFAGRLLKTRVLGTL
In short: (§1)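 Cells were Fluo-4-loaded, then test compound (10 μM, or a concentration series for IC50) was preincubated 10–20 min before agonist challenge at EC80: Lys-Des-Arg9-bradykinin for hB1R, Des-Arg9-bradykinin for rB1R. Peak Ca2+ fluorescence (ex 488/em 540 nm) gave % inhibition versus maximal achievable inhibition.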

[2] = biological target: T2, human B1R (bradykinin receptor 1) (Homo sapiens, UniProt P46663); experiment: FLIPR Ca2+ assay (Fluo-4) on CHO K1 cells stably transfected with the human B1R gene (hB1R cells): % inhibition at 10 μM / IC50, agonist Lys-Des-Arg9-bradykinin; format: cell-based; conditions: for inhibition at 10 µM: CHO-K1, human B1R
T2 construct: expressed in transfected cells; host or cells: CHO K1 cells
T2 sequence (P46663 1-353): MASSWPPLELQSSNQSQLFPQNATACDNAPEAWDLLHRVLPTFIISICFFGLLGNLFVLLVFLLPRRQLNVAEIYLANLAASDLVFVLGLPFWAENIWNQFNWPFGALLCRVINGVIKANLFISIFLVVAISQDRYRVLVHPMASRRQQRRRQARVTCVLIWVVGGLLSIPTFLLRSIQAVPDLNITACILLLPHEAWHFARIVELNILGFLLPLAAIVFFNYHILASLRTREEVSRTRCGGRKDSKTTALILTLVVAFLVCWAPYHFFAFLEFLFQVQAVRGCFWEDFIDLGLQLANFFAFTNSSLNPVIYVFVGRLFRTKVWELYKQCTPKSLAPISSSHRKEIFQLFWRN
In short: as §1

Row | SMILES | inhibition at 10 µM [1] [%] | inhibition at 10 µM [2] [%] | % Inhibition (rat B1R) at 10 μM ([1]; rat B1R, 10 µM) [%] | % Inhibition (human B1R) at 10 μM ([2]; human B1R) [%]
1 | O=C(NC1CCc2ccc(C(=O)N3CCC4(CCN(c5ccncc5)CC4)C3)cc21)c1cccc(Cl)c1Cl (stereo not drawn) [IND_CC-284, 2,3-Dichloro-N-[6-(8-pyridin-4-yl-2,8-diazaspiro[4.5]decane-2-carbonyl)-2,3-dihydro-1H-inden-1-yl]-benzamide] | 107 | 100 |  | 
2 | CC1(C)Cc2ccc(C(=O)N3CCC4(CC3)CCN(c3ccncc3)CC4)cc2C1NC(=O)c1c(Cl)cccc1Cl (stereo not drawn) [IND_CC-287, 2,6-Dichloro-N-[2,2-dimethyl-6-(9-pyridin-4-yl-3,9-diazaspiro[5.5]undecane-3-carbonyl)-1,3-dihydro-inden-1-yl]-benzamide] | 105 | 99 |  | 
3 | CC1(C)CC(NC(=O)c2c(Cl)cccc2Cl)c2cc(C(=O)N3CCC4(CC3)CCN(c3ccncc3)CC4)ccc21 (stereo not drawn) [IND_CC-288, 2,6-Dichloro-N-[3,3-dimethyl-6-(3-pyridin-4-yl-3,9-diazaspiro[5.5]undecane-9-carbonyl)-1,2-dihydro-inden-1-yl]-benzamide] | 106 | 100 |  | 
4 | O=C(NC1CCc2ccc(C(=O)N3CCC4(CCN(c5ccncc5)CC4)C3)cc21)c1c(Cl)cccc1Cl (stereo not drawn) [IND_CC-289, 2,6-Dichloro-N-[6-(8-pyridin-4-yl-2,8-diazaspiro[4.5]decane-2-carbonyl)-2,3-dihydro-1H-inden-1-yl]-benzamide] | 104 | 100 |  | 
5 | O=C(NC1CCc2ccc(C(=O)N3CCC4(CC3)CCN(c3ccc(C(F)(F)F)cc3)CC4)cc21)c1ccccc1Cl (stereo not drawn) [IND_CC-290, 2-Chloro-N-[6-[9-[4-(trifluoromethyl)-phenyl]-3,9-diazaspiro[5.5]undecane-3-carbonyl]-2,3-dihydro-1H-inden-1-yl]-benzamide] | 100 | 35 |  | 
6 | CC1(C)Cc2ccc(C(=O)N3CCC4(CC3)CCN(c3ccncc3)CC4)cc2C1NC(=O)c1ccccc1Cl (stereo not drawn) [IND_CC-291, 2-Chloro-N-[2,2-dimethyl-6-(9-pyridin-4-yl-3,9-diazaspiro[5.5]undecane-3-carbonyl)-1,3-dihydro-inden-1-yl]-benzamide] | 104 | 98 |  | 
7 | CC1(C)CC(NC(=O)c2ccccc2Cl)c2cc(C(=O)N3CCC4(CC3)CCN(c3ccncc3)CC4)ccc21 (stereo not drawn) [IND_CC-292, 2-Chloro-N-[3,3-dimethyl-6-(3-pyridin-4-yl-3,9-diazaspiro[5.5]undecane-9-carbonyl)-1,2-dihydro-inden-1-yl]-benzamide] | 105 | 99 |  | 
8 | O=C(NC1CCc2ccc(C(=O)N3CCC4(CCN(c5ccncc5)CC4)C3)cc21)c1ccccc1Cl (stereo not drawn) [IND_CC-293, 2-Chloro-N-[6-(8-pyridin-4-yl-2,8-diazaspiro[4.5]decane-2-carbonyl)-2,3-dihydro-1H-inden-1-yl]-benzamide] |  |  | 106 | 100
9 | Cc1cccc(C)c1C(=O)NC1CCc2ccc(C(=O)N3CCC4(CC3)CCN(c3ccncc3)CC4)cc21 (stereo not drawn) [IND_CC-294, 2,6-Dimethyl-N-[6-(9-pyridin-4-yl-3,9-diazaspiro[5.5]undecane-3-carbonyl)-2,3-dihydro-1H-inden-1-yl]-benzamide] | 105 | 99 |  | 
10 | Cc1cccc(C)c1C(=O)NC1CCc2ccc(C(=O)N3CCC4(CC3)CCN(c3ccncc3)C4)cc21 (stereo not drawn) [IND_CC-295, 2,6-Dimethyl-N-[6-(2-pyridin-4-yl-2,8-diazaspiro[4.5]decane-8-carbonyl)-2,3-dihydro-1H-inden-1-yl]-benzamide] | 106 | 96 |  | 
11 | COc1ccc(C(=O)N(C)C2CCc3ccc(C(=O)N4CCC5(CC4)CCN(c4ccncc4)CC5)cc32)c(F)c1 (stereo not drawn) [IND_CC-296, 2-Fluoro-4-methoxy-N-methyl-N-[6-(9-pyridin-4-yl-3,9-diazaspiro[5.5]undecane-3-carbonyl)-2,3-dihydro-1H-inden-1-yl]-benzamide] | 103 | 59 |  | 
12 | Cc1cc(OC(F)(F)F)ccc1C(=O)N(C)C1CCc2ccc(C(=O)N3CCC4(CC3)CCN(c3ccncc3)CC4)cc21 (stereo not drawn) [IND_CC-299, N,2-Dimethyl-N-[6-(9-pyridin-4-yl-3,9-diazaspiro[5.5]undecane-3-carbonyl)-2,3-dihydro-1H-inden-1-yl]-4-(trifluoromethyloxy)-benzamide] | 106 | 27 |  | 
13 | CN(C(=O)c1cc(Cl)ccc1C(F)(F)F)C1CCc2ccc(C(=O)N3CCC4(CC3)CCN(c3ccncc3)CC4)cc21 (stereo not drawn) [IND_CC-301, 5-Chloro-N-methyl-N-[6-(9-pyridin-4-yl-3,9-diazaspiro[5.5]undecane-3-carbonyl)-2,3-dihydro-1H-inden-1-yl]-2-(trifluoromethyl)-benzamide] | 107 | 94 |  | 
14 | O=C(NC1CCc2ccc(C(=O)N3CCC4(CC3)CCN(c3ccncc3)CC4)cc21)c1cc(Cl)ccc1C(F)(F)F (stereo not drawn) [IND_CC-302, 5-Chloro-N-[6-(9-pyridin-4-yl-3,9-diazaspiro[5.5]undecane-3-carbonyl)-2,3-dihydro-1H-inden-1-yl]-2-(trifluoromethyl)-benzamide] | 106 | 99 |  | 
15 | O=C(NC1CCc2ccc(C(=O)N3CCC4(CC3)CCN(c3ccncc3)C4)cc21)c1cc(Cl)ccc1C(F)(F)F (stereo not drawn) [IND_CC-303, 5-Chloro-N-[6-(2-pyridin-4-yl-2,8-diazaspiro[4.5]decane-8-carbonyl)-2,3-dihydro-1H-inden-1-yl]-2-(trifluoromethyl)-benzamide] | 106 | 92 |  | 
16 | Cc1ccc(C(=O)N(C)C2CCc3ccc(C(=O)N4CCC5(CC4)CCN(c4ccncc4)CC5)cc32)c(F)c1 (stereo not drawn) [IND_CC-304, 2-Fluoro-N,4-dimethyl-N-[6-(9-pyridin-4-yl-3,9-diazaspiro[5.5]undecane-3-carbonyl)-2,3-dihydro-1H-inden-1-yl]-benzamide] | 104 | 49 |  | 
17 | Cc1ccc(C(=O)NC2CCc3ccc(C(=O)N4CCC5(CC4)CCN(c4ccncc4)CC5)cc32)c(F)c1 (stereo not drawn) [IND_CC-305, 2-Fluoro-4-methyl-N-[6-(9-pyridin-4-yl-3,9-diazaspiro[5.5]undecane-3-carbonyl)-2,3-dihydro-1H-inden-1-yl]-benzamide] | 104 | 67 |  | 
18 | Cc1cccc(C)c1C(=O)NC1CCc2ccc(C(=O)N3CCC4(CC3)CCN(c3ccc(C(F)(F)F)cc3)CC4)cc21 (stereo not drawn) [IND_CC-307, 2,6-Dimethyl-N-[6-[9-[4-(trifluoromethyl)-phenyl]-3,9-diazaspiro[5.5]undecane-3-carbonyl]-2,3-dihydro-1H-inden-1-yl]-benzamide] | 103 | 14 |  | 
19 | Cc1cccc(C)c1C(=O)NC1c2cc(C(=O)N3CCC4(CC3)CCN(c3ccncc3)CC4)ccc2CC1(C)C (stereo not drawn) [IND_CC-308, N-[2,2-Dimethyl-6-(9-pyridin-4-yl-3,9-diazaspiro[5.5]undecane-3-carbonyl)-1,3-dihydro-inden-1-yl]-2,6-dimethyl-benzamide] | 106 | 97 |  | 
20 | Cc1cccc(C)c1C(=O)NC1CC(C)(C)c2ccc(C(=O)N3CCC4(CC3)CCN(c3ccncc3)CC4)cc21 (stereo not drawn) [IND_CC-309, N-[3,3-Dimethyl-6-(3-pyridin-4-yl-3,9-diazaspiro[5.5]undecane-9-carbonyl)-1,2-dihydro-inden-1-yl]-2,6-dimethyl-benzamide] | 104 | 97 |  | 
21 | Cc1cccc(C)c1C(=O)NC1CCc2ccc(C(=O)N3CCC4(CCN(c5ccncc5)CC4)C3)cc21 (stereo not drawn) [IND_CC-310, 2,6-Dimethyl-N-[6-(8-pyridin-4-yl-2,8-diazaspiro[4.5]decane-2-carbonyl)-2,3-dihydro-1H-inden-1-yl]-benzamide] | 104 | 100 |  | 
22 | COc1ccc(C(=O)NC2CC(C)(C)c3ccc(C(=O)N4CCC5(CC4)CCN(c4ccncc4)CC5)cc32)c(F)c1 (stereo not drawn) [IND_CC-312, N-[3,3-Dimethyl-6-(3-pyridin-4-yl-3,9-diazaspiro[5.5]undecane-9-carbonyl)-1,2-dihydro-inden-1-yl]-2-fluoro-4-methoxy-benzamide] | 102 | 44 |  | 
23 | O=C(NC1CCc2ccc(C(=O)N3CCC4(CCN(Cc5ccc[nH]5)CC4)CC3)cc21)c1ccccc1Cl (stereo not drawn) [IND_CC-507, 2-Chloro-N-[6-[9-(1H-pyrrol-2-yl-methyl)-3,9-diazaspiro[5.5]undecane-3-carbonyl]-2,3-dihydro-1H-inden-1-yl]-benzamide] | 100 | 2 |  | 
24 | Cn1cncc1CN1CCC2(CC1)CCN(C(=O)c1ccc3c(c1)C(NC(=O)c1ccccc1Cl)CC3)CC2 (stereo not drawn) [IND_CC-526, 2-Chloro-N-[6-[9-[(3-methyl-3H-imidazol-4-yl)-methyl]-3,9-diazaspiro[5.5]undecane-3-carbonyl]-2,3-dihydro-1H-inden-1-yl]-benzamide] | 87 | 25 |  | 
